This is an account of results in patent US10385069B2, “Imidazo[2,1-B]thiazole and 5,6-dihydroimidazo[2,1-B]thiazole derivatives useful as S100-inhibitors” (Active Biotech AB, priority 2015, dated 2019).

The structures appear in SMILES notation.

This assay has as its target T1, interaction between biotinylated human S100A9 and human RAGE-Fc (Homo sapiens, UniProt P06702).
T1 construct: made in house; host or cells: E. coli
T1 sequence (P06702 1-114): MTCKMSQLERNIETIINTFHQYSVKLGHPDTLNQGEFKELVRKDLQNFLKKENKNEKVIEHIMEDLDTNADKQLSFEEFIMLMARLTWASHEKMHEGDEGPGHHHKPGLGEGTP
Description: AlphaScreen inhibition assay, biot-hS100A9:hRAGE-Fc. The assay is classed as binding. The conditions noted are these: biot-hS100A9 pre-incubated with compound 1 h, assay buffer with CaCl2 and ZnCl2. An excerpt:
Inhibition Assay, Biot-hS100A9:hRAGE-Fc
The AlphaScreen (Amplified Luminescent Proximity Homogeneous Assay) contains two types of beads, Alpha Donor beads and Acceptor beads (PerkinElmer). Upon laser excitation at 680 nm a photosensitizer in the Donor bead converts ambient oxygen to a more excited singlet state. The singlet oxygen molecule diffuses (maximum 200 nm) to react with a thioxene derivative in the Acceptor bead and generates a chemiluminescence reaction. Fluorophores in the Acceptor bead subsequently emit light at 520-620 nm which can be detected in the EnVision® Multilabel plate Reader (PerkinElmer). The beads are light sensitive and all work with the beads is performed under subdued light conditions or using green filters on light sources (Roscolux Chroma Green #389, Rosco).
In the AlphaScreen Inhibition Assay described here, protein A (Staphylococcus aureus) conjugated Acceptor beads are used together with streptavidin coated Donor beads (Perkin Elmer 6760617M). The Acceptor beads are pre-incubated with Fc-tagged recombinant human RAGE (rhRAGE-Fc) allowing binding of the rhRAGE-Fc to protein A on the beads. Biotinylated human S100A9 (biot-hS100A9) is pre-incubated with the low molecular test compounds. The pre-mixes are then added to the wells of a micro-plate and incubated allowing interaction between biot-hS100A9 and rhRAGE-Fc. Subsequent addition of streptavidin coated Donor beads causes binding of the streptavidin to the biotinylated hS100A9. After an additional incubation the signal is measured.
Without inhibitory compounds, the interaction of biot-hS100A9 to rhRAGE-Fc will bring the Acceptor and Donor beads in close proximity thus generating a high signal. With an inhibitor present the complex will not form resulting in a decreased signal. The assay is illustrated in FIG. 1.
Chemicals and Reagents. • AlphaScreen® General IgG (Protein A) Detection Kit, (PerkinElmer 6760617M) • HBS-P buffer (GE Healthcare, BR-1003-68) • HBS-N buffer (GE Healthcare, BR-1003-69) • CaCl2 in HBS-P • ZnCl2 in Milli-Q water • DMSO • Biotinylated hS100A9, (biotinylated via cystein by EZ-link Iodoacetyl-PEG2-Biotin reagent (Pierce no. 21334), in HBS-N • rhRAGE-Fc (R&D Systems, 1145-RG-50), in HBS-P
The AlphaScreen assay method is used for screening of the inhibitory effect of different compound samples at fixed concentrations or for IC50 determination by varying the compound concentrations. Samples of test compounds and references are prepared from solutions in DMSO. Relevant reference inhibitors and DMSO are used as controls for defined inhibition and non-inhibition, respectively in the assay. The percent inhibition in assay for test compounds and references are calculated by comparing their obtained assay signals with the signal values for the control with only DMSO (no compound).
Assay concentration of biotinylated hS100A9 and rhRAGE-Fc are batch dependent, and are determined and defined by separate cross-titration experiments using this AlphaScreen inhibition method to verify the optimal setup regarding signal strength and achievement of a defined inhibition with relevant reference compounds. The Final assay concentrations of Acceptor and Donor beads are 20 μg/mL.
Assay buffer is prepared by adding CaCl2 and ZnCl2 to HBS-P and is used freshly prepared in the experiment.
Biotin-hS100A9 solution for the experiment is prepared by dilution of appropriate amount of stock solution biot-hS100A9 in assay buffer (with CaCl2 and ZnCl2) and incubation in room temperature for 30 minutes.
rhRAGE-Fc solution for the experiment is prepared by dilution appropriate amount of rhRAGE-Fc stock in assay buffer.
Protein A Acceptor beads are diluted in assay buffer and are added to an equal volume of the prepared diluted rhRAGE-Fc solution. The beads are light sensitive. The vial is covered with aluminum foil and incubated at room temperature in the dark until biot-hS100A9+compound incubation is finished (see below). […]
In the case of `O=C(NS(=O)(=O)C(F)(F)F)c1cn2c(n1)sc1c(Cl)c(Cl)ccc12` [Example 26, 9,10-Dichloro-N-trifluoromethanesulfonyl-7-thia-2,5-diazatricyclo[6.4.0.0^2,6]dodeca-1(8),3,5,9,11-pentaene-4-carboxamide], the half-inhibitory concentration (IC50) was 420 nM.

Turning to `COC(=O)CCS(=O)(=O)NC(=O)c1cn2c(n1)sc1c(Cl)c(Cl)ccc12` [Example 27, Methyl 3-[({9,10-dichloro-7-thia-2,5-diazatricyclo[6.4.0.0^2 6]dodeca-1(8),3,5,9,11-pentaen-4-yl}formamido)sulfonyl]propanoate], the IC50 was found to be 70 nM.

`O=C(NS(=O)(=O)CCCO)c1cn2c(n1)sc1c(Cl)c(Cl)ccc12` [Example 28, 9,10-Dichloro-N-(3-hydroxypropanesulfonyl)-7-thia-2,5-diazatricyclo[6.4.0.0^2,6]dodeca-1(8),3,5,9,11-pentaene-4-carboxamide]: the IC50 amounted to 170 nM.

Regarding `CCN(CC)CCCS(=O)(=O)NC(=O)c1cn2c(n1)sc1c(Cl)c(Cl)ccc12` [Example 29, 9,10-Dichloro-N-[3-(diethylamino)propanesulfonyl]-7-thia-2,5-diazatricyclo[6.4.0.0^2,6]dodeca-1(8),3,5,9,11-pentaene-4-carboxamide], the concentration for half-maximal inhibition (IC50) is 460 nM.

On to `CS(=O)(=O)NC(=O)Cc1cn2c(n1)sc1c(Cl)c(Cl)ccc12` [Example 30, 2-{9,10-Dichloro-7-thia-2,5-diazatricyclo[6.4.0.0^2,6]dodeca-1(8),3,5,9,11-pentaen-4-yl}-N-methanesulfonylacetamide], for which the half-maximal inhibitory concentration (IC50) turned out to be 2910 nM.

With `O=C(O)c1cn2c3c(sc2n1)CCCC3` [Example 31, 7-Thia-2,5-diazatricyclo[6.4.0.0^2,6]dodeca-1(8),3,5-triene-4-carboxylic acid], the IC50 is 2390 nM.

With `CC1(C)Cc2c(sc3nc(C(=O)O)cn23)C(C)(C)C1` [Example 32, 9,9,11,11-Tetramethyl-7-thia-2,5-diazatricyclo[6.4.0.0^2,6]dodeca-1(8),3,5-triene-4-carboxylic acid], the IC50 was determined as 320 nM.

For the compound `CC1(C)CCc2c(sc3nc(C(=O)O)cn23)C1` [Example 33, 10,10-Dimethyl-7-thia-2,5-diazatricyclo[6.4.0.0^2,6]dodeca-1(8),3,5-triene-4-carboxylic acid], the IC50 was 830 nM.

`O=C(O)c1cn2c3c(sc2n1)CC(c1ccccc1)CC3` (stereo not drawn) [Example 34, 10-Phenyl-7-thia-2,5-diazatricyclo[6.4.0.0^2,6]dodeca-1(8),3,5-triene-4-carboxylic acid]: the IC50 turned out to be 1500 nM.

In the case of `CC(C)(C)C1CCc2c(sc3nc(C(=O)O)cn23)C1` (stereo not drawn) [Example 35, 10-tert-Butyl-7-thia-2,5-diazatricyclo[6.4.0.0^2,6]dodeca-1(8),3,5-triene-4-carboxylic acid], the IC50 worked out at 450 nM.

For the compound `CC1(C)Cc2c(sc3nc(C(=O)O)cn23)C1(C)C` [Example 36, 4,4,5,5-Tetramethyl-7-thia-1,9-diazatricyclo[6.3.0.0^2,6]undeca-2(6),8,10-triene-10-carboxylic acid], the IC50 is 360 nM.

For `O=C(O)c1cn2c3c(sc2n1)CCCCC3` [Example 37, 7-Thia-2,5-diazatricyclo[6.5.0.0^2,6]trideca-1(8),3,5-triene-4-carboxylic acid], the 50% inhibitory concentration (IC50) came out at 1050 nM.

Consider `CC1(C)CCc2sc3nc(C(=O)O)cn3c2C1` [Example 38, 11,11-Dimethyl-7-thia-2,5-diazatricyclo[6.4.0.0^2,6]dodeca-1(8),3,5-triene-4-carboxylic acid], for which the IC50 amounted to 830 nM.

Consider `O=C(O)c1cn2c3c(sc2n1)C(O)CCC3` (stereo not drawn) [Example 39, 9-Hydroxy-7-thia-2,5-diazatricyclo[6.4.0.0^2,6]dodeca-1(8),3,5-triene-4-carboxylic acid], for which the half-maximal inhibitory concentration (IC50) turned out to be 2980 nM.

Consider `CC(C)(C)Nc1c(C(=O)O)nc2sc3c(n12)CCC(C(C)(C)C)C3` (stereo not drawn) [Example 40, 10-tert-Butyl-3-(tert-butylamino)-7-thia-2,5-diazatricyclo[6.4.0.0^2,6]dodeca-1(8),3,5-triene-4-carboxylic acid], for which the IC50 stood at 460 nM.

Turning to `O=C(O)c1cn2c3c(sc2n1)-c1ccccc1CC3` [Example 41, 16-Thia-11,14-diazatetracyclo[8.6.0.0^2,7.0^11,15]hexadeca-1 (10),2(7),3,5,12,14-hexaene-13-carboxylic acid], the IC50 is 360 nM.

As for `CC(C)(C)C1CCc2c(sc3nc(C(=O)O)c(NCc4ccccc4)n23)C1` (stereo not drawn) [Example 42, 3-(Benzylamino)-10-tert-butyl-7-thia-2,5-diazatricyclo[6.4.0.0^2,6]dodeca-1(8),3,5-triene-4-carboxylic acid], the IC50 came to 1040 nM.

`CC1(C)CCCc2c1sc1nc(C(=O)O)cn21` [Example 43, 9,9-Dimethyl-7-thia-2,5-diazatricyclo[6.4.0.0^2,6]dodeca-1(8),3,5-triene-4-carboxylic acid]: the IC50 came out at 1240 nM.

On to `CC1CCCc2c1sc1nc(C(=O)O)cn21` (stereo not drawn) [Example 44, 9-Methyl-7-thia-2,5-diazatricyclo[6.4.0.0^2,6]dodeca-1(8),3,5-triene-4-carboxylic acid], for which the IC50 came out at 840 nM.

`CC(C)(C)C1CCc2c(sc3nc(CC(=O)O)cn23)C1` (stereo not drawn) [Example 45, 2-{10-tert-Butyl-7-thia-2,5-diazatricyclo[6.4.0.0^2,6]dodeca-1(8),3,5-trien-4-yl}acetic acid]: the half-maximal inhibitory concentration (IC50) is 3100 nM.

Take `CC1(C)Cc2c(sc3nc(CC(=O)O)cn23)C(C)(C)C1` [Example 46, 2-{9,9,11,11-Tetramethyl-7-thia-2,5-diazatricyclo[6.4.0.0^2,6]dodeca-1(8),3,5-trien-4-yl}acetic acid]: the IC50 came out at 4940 nM.

On to `CC(C)(C)C1CCc2c(sc3nc(C(=O)NS(C)(=O)=O)cn23)C1` (stereo not drawn) [Example 47, 10-tert-Butyl-N-methanesulfonyl-7-thia-2,5-diazatricyclo[6.4.0.0^2,6]dodeca-1(8),3,5-triene-4-carboxamide], for which the half-maximal inhibitory concentration (IC50) amounted to 340 nM.

Take `CC1(C)CCc2sc3nc(C(=O)NS(C)(=O)=O)cn3c2C1` [Example 50, N-Methanesulfonyl-11,11-dimethyl-7-thia-2,5-diazatricyclo[6.4.0.0^2,6]dodeca-1(8),3,5-triene-4-carboxamide]: the half-inhibitory concentration (IC50) amounted to 1040 nM.

Regarding `CC(C)(C)C1CCc2c(sc3nc(C(=O)NS(=O)(=O)CCCN4CCOCC4)cn23)C1` (stereo not drawn) [Example 51, 10-tert-Butyl-N-[3-(morpholin-4-yl)propanesulfonyl]-7-thia-2,5-diazatricyclo[6.4.0.0^2,6]dodeca-1(8),3,5-triene-4-carboxamide], the IC50 stood at 490 nM.

`CC1(C)Cc2c(sc3nc(C(=O)NS(C)(=O)=O)cn23)C1(C)C` [Example 52, N-Methanesulfonyl-4,4,5,5-tetramethyl-7-thia-1,9-diazatricyclo[6.3.0.0^2,6]undeca-2(6),8,10-triene-10-carboxamide]: the IC50 came out at 440 nM.

In the case of `CC1(C)Cc2c(sc3nc(C(=O)NS(C)(=O)=O)cn23)C(C)(C)C1` [Example 53, N-Methanesulfonyl-9,9,11,11-tetramethyl-7-thia-2,5-diazatricyclo[6.4.0.0^2,6]dodeca-1(8),3,5-triene-4-carboxamide], the IC50 was 480 nM.

Take `CCN(CC)CCCS(=O)(=O)NC(=O)c1cn2c3c(sc2n1)C(C)(C)CC(C)(C)C3` [Example 54, N-[3-(Diethylamino)propanesulfonyl]-9,9,11,11-tetramethyl-7-thia-2,5-diazatricyclo[6.4.0.0^2,6]dodeca-1(8),3,5-triene-4-carboxamide]: the IC50 stood at 1360 nM.
